Values joined by “and” are separate entries in the source; they are usually repeats but may differ in a detail not shown here. Identical values can stand only once.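 Where inhibition never reached the appropriate level, the endpoint shown equals the highest concentration tested. Otherwise, values were interpolated linearly from a five-concentration, 48-hour dose response in 96-well plates. GI50 = concentration required for 50% inhibition of growth. At the TGI there is no net growth.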
Key:
Assay in all cases: NCI tumour cell line growth inhibition, 48 h
A549 NSCLC = test system: A549 NSCLC
HCT-15 colon = test system: HCT-15 colon
HL-60(TB) leukemia = test system: HL-60(TB) leukemia
HS 578T breast = test system: HS 578T breast
M14 melanoma = test system: M14 melanoma
SF-268 CNS = test system: SF-268 CNS
SK-MEL-28 melanoma = test system: SK-MEL-28 melanoma
SK-OV-3 ovarian = test system: SK-OV-3 ovarian
SN12C renal = test system: SN12C renal
SNB-75 CNS = test system: SNB-75 CNS
T-47D breast = test system: T-47D breast
UACC-62 melanoma = test system: UACC-62 melanoma

Structure (SMILES)	TGI (A549 NSCLC)	TGI (HCT-15 colon)	TGI (HL-60(TB) leukemia)	TGI (HS 578T breast)	TGI (M14 melanoma)	TGI (SF-268 CNS)	TGI (SK-MEL-28 melanoma)	TGI (SK-OV-3 ovarian)	TGI (SN12C renal)	TGI (SNB-75 CNS)	TGI (T-47D breast)	TGI (UACC-62 melanoma)	GI50 (HCT-15 colon)	GI50 (HL-60(TB) leukemia)	GI50 (M14 melanoma)	GI50 (SK-MEL-28 melanoma)	GI50 (SN12C renal)	GI50 (T-47D breast)	GI50 (UACC-62 melanoma)
CCOC(=O)c1cnc(-n2[nH]c(C)c(CCO)c2=O)[nH]c1=O	> 100 µM	> 100 µM	> 100 µM	> 100 µM	> 100 µM	> 100 µM	> 100 µM	> 100 µM	> 100 µM	> 100 µM	> 100 µM	> 100 µM							
CC(=O)NC1C(OCc2ccccc2)OC(CO)C(O)C1OCC(=O)NC(C)C(=O)NC(CCC(=O)NCCCCNc1ccc([N+](=O)[O-])c2[nH]c3ccccc3c(=O)c12)C(N)=O (configuration not stated)	> 100 µM	> 100 µM	> 100 µM	75.2 µM	> 100 µM	> 100 µM	> 100 µM	> 100 µM	> 100 µM	> 100 µM	> 100 µM								
CCOC(=O)c1cccc(NC(=O)CCl)c1	29.8 µM	12.4 µM	13.2 µM	11 µM	24.9 µM	5.69 µM	49.7 µM	15.3 µM	4.6 µM	9.22 µM	10.1 µM	6.85 µM							
O=C(CP(c1ccccc1)c1ccccc1)c1cccc(C(=O)CP(c2ccccc2)c2ccccc2)c1	> 100 µM	> 100 µM	42.8 µM	> 100 µM	> 100 µM	> 100 µM	> 100 µM	> 100 µM	> 100 µM	> 100 µM	94.8 µM	> 100 µM							
C=CCC1(O)c2ccccc2C(=O)c2c(O)ccc(O)c21 (configuration not stated)	> 87.3 µM	> 75.7 µM	13 µM	21.9 µM	27.5 µM	56.9 µM	> 100 µM	40.7 µM	56.4 µM	25.3 µM	> 59.2 µM	20.3 µM							
O=C1Oc2ccccc2C(=O)/C1=C/N1C(=O)N/C(=C\c2ccccc2O)C1=O	> 100 µM	> 100 µM	> 100 µM	> 100 µM	> 100 µM	> 100 µM	> 100 µM	> 100 µM	> 100 µM	> 100 µM	> 85.5 µM	> 100 µM							
O=c1cc(CNC2CCCC2)[nH]c(=O)[nH]1	> 100 µM	> 100 µM	> 100 µM	> 100 µM	> 100 µM	> 100 µM	> 100 µM	> 100 µM	> 100 µM	> 100 µM	> 100 µM	> 100 µM							
O=C1NC(N/N=C\C(O)C(O)C(O)CO)=N/C1=C/c1ccccc1 (configuration not stated)	> 100 µM	> 100 µM	> 100 µM	> 100 µM	> 100 µM and 76.9 µM	> 100 µM	> 100 µM	> 100 µM	> 100 µM	> 100 µM	> 100 µM		> 100 µM and 35.5 µM	> 100 µM and 41.2 µM	> 100 µM and 30.4 µM	> 100 µM and 25.6 µM	> 100 µM and 46.8 µM	> 100 µM and 49.2 µM	
O=C1C=CC2CCC1C2 (configuration not stated)	> 100 µM	> 100 µM	> 100 µM	80.4 µM	> 100 µM	58.6 µM	89.9 µM	72.4 µM	> 100 µM	> 100 µM	> 100 µM	> 100 µM							
O=S(=O)(Oc1ccc2oc3ccccc3c2c1-c1c(OS(=O)(=O)C(F)(F)F)ccc2oc3ccccc3c12)C(F)(F)F	> 100 µM	> 100 µM	> 100 µM	> 100 µM	> 100 µM	> 100 µM	> 100 µM	> 100 µM		> 100 µM	> 100 µM	> 100 µM							
c1ccc(CNC2CC(NCc3ccccn3)CC(NCc3ccccn3)C2)nc1 (configuration not stated)	6.47 µM and 6.12 µM	> 75.2 µM and 25 µM and > 100 µM	10.5 µM and 10.2 µM	53.3 µM and 25 µM and 85.5 µM	10.3 µM and 8.32 µM and 5.31 µM	15.7 µM and 13.3 µM and 16.3 µM	18.5 µM and 13.3 µM and 26.4 µM	7.86 µM and 8.7 µM and 7.17 µM	20.8 µM and 13.6 µM and 17.7 µM	9.59 µM and 16 µM	21.5 µM and 25 µM and 25.6 µM	5.27 µM and 12.1 µM and 3.53 µM		2.78 µM and 1.23 µM	3.15 µM and 1.39 µM and 2.35 µM	7.71 µM		6.64 µM	2.3 µM and 4.72 µM and 1.83 µM
C=C(C)[C@@H]1CC[C@]2(C(=O)O)CC[C@]3(C)[C@H](CC[C@@H]4[C@@]5(C)CC(=O)C(C)(C)[C@@H]5CC[C@]43C)[C@@H]12	> 25 µM	> 25 µM	1.61 µM	> 25 µM	> 25 µM	> 25 µM	> 25 µM	> 25 µM	13.6 µM	> 25 µM	> 25 µM	6.66 µM							
CN(C)c1nc2sc3c(c2c(=O)o1)CCCC3	> 100 µM	> 100 µM	> 100 µM	> 100 µM	> 100 µM		> 100 µM	> 100 µM	> 100 µM	95.2 µM	> 100 µM	> 100 µM							
CC1(C)O[C@H]2Cn3c(c(C#N)c4ccccc43)[C@H]2O1	> 100 µM	> 100 µM	> 100 µM	> 100 µM	> 100 µM	> 100 µM	> 100 µM	> 100 µM	> 100 µM	> 100 µM	> 100 µM	> 100 µM							
O=C(O)[C@H]1[C@@H](C2CCCCC2)O[C@@H](C2CCCCC2)O[C@H]1C(F)(F)F	42.4 µM	88.1 µM	62.6 µM	58.8 µM	39.4 µM	44.2 µM	41.4 µM	> 100 µM	38.5 µM	38.2 µM	> 100 µM	41.2 µM							

Source: PubChem BioAssay (NCI)
